Converted amounts (≈) assume the structure as drawn.
Assays:
Type in all cases: cell-based
[1] = test system: Staphylococcus aureus MT1222 gyrA^A116E grlB^S80F; experiment: microbe, parasite or virus in culture; conditions: cipR strain, Cation-Adjusted Mueller-Hinton Broth, 37° C., read-out: MIC
[2] = test system: Staphylococcus epidermidis ATCC12228; experiment: MIC, microbroth dilution (NCCLS); conditions: rifS strain, Cation-Adjusted Mueller-Hinton Broth, 37° C., read-out: MIC
[3] = test system: Streptococcus pneumoniae ATCC6303; experiment: MIC, microbroth dilution (NCCLS); conditions: rifS strain, THY Broth with 1 mg/mL catalase, 5% CO2, 37° C., read-out: MIC
[4] = test system: Staphylococcus aureus ATCC29213; experiment: MIC, microbroth dilution (NCCLS); conditions: rifS strain, Cation-Adjusted Mueller-Hinton Broth, 37° C., read-out: MIC
[5] = test system: Staphylococcus aureus ATCC29213 rpoB^H418Y; experiment: microbe, parasite or virus in culture; conditions: Staphylococcus aureus, ATCC29213; rifR strain; Cation-Adjusted Mueller-Hinton Broth, 37° C.; read-out: MIC
[6] = test system: Streptococcus pyogenes ATCC19615; experiment: MIC, microbroth dilution (NCCLS); conditions: rifS strain, THY Broth, 37° C., read-out: MIC
[7] = test system: Haemophilus influenzae ATCC10211; experiment: MIC, microbroth dilution (NCCLS); conditions: rifS strain, BHI Broth with NAD and hematin, 37° C., read-out: MIC

SMILES | MIC [1] [µg/mL] | MIC [2] [µg/mL] | MIC [3] [µg/mL] | MIC [4] [µg/mL] | MIC [5] [µg/mL] | MIC [6] [µg/mL] | MIC [7] [µg/mL]
CO[C@H]1/C=C/O[C@@]2(C)Oc3c(C)c(O)c4c(c3C2=O)C(=O)C(/C=N/N2CCN(c3nc5c(cc3F)c(=O)c(C(=O)O)cn5-c3ccc(F)cc3F)CC2)=C(NC(=O)/C(C)=C\C=C\[C@H](C)[C@H](O)[C@@H](C)[C@@H](O)[C@@H](C)[C@H](OC(C)=O)[C@@H]1C)C4=O [Example 10, 3-[4-[3-Carboxy-1-(2,4-difluoro-phenyl)-6-fluoro-4-oxo-1,4-dihydro-[1,8]naphthyridine-7-yl]-piperazin-1-ylaminomethylenyl]rifamycin S] | 0.008 to 0.125 (≈ 0.00711 to 0.111 µM) | 0.008 to 0.1 (≈ 0.00711 to 0.0889 µM) | 0.008 to 0.06 (≈ 0.00711 to 0.0533 µM) | 0.008 to 1 (≈ 0.00711 to 0.889 µM) | 0.06 to 16 (≈ 0.0533 to 14.2 µM) | 0.008 to 0.03 (≈ 0.00711 to 0.0267 µM) | 0.125 to 4 (≈ 0.111 to 3.56 µM)
COc1c(N2CC3CCCN(/N=C/C4=C5NC(=O)/C(C)=C\C=C\[C@H](C)[C@H](O)[C@@H](C)[C@@H](O)[C@@H](C)[C@H](OC(C)=O)[C@H](C)[C@@H](OC)/C=C/O[C@@]6(C)Oc7c(C)c(O)c(c(c7C6=O)C4=O)C5=O)C3C2)c(F)cc2c(=O)c(C(=O)O)cn(C3CC3)c12 (stereo partly shown) [Example 13, 3-[6-(3-Carboxy-1-cyclopropyl-6-fluoro-8-methoxy-4-oxo-1,4-dihydroquinolin-7-yl)-octahydropyrrolo[3,4-b]pyridin-1-yl-aminomethylenyl]rifamycin S] | 0.008 to 0.125 (≈ 0.00713 to 0.111 µM) | 0.008 to 0.1 (≈ 0.00713 to 0.0891 µM) | 0.008 to 0.06 (≈ 0.00713 to 0.0535 µM) | 0.008 to 1 (≈ 0.00713 to 0.891 µM) | 0.06 to 16 (≈ 0.0535 to 14.3 µM) | 0.008 to 0.03 (≈ 0.00713 to 0.0267 µM) | 0.125 to 4 (≈ 0.111 to 3.56 µM)
CO[C@H]1/C=C/O[C@@]2(C)Oc3c(C)c(O)c4c(O)c(c(/C=N/N5CCN(c6nc7c(cc6F)c(=O)c(C(=O)O)cn7-c6ccc(F)cc6F)CC5)c(O)c4c3C2=O)NC(=O)/C(C)=C\C=C\[C@H](C)[C@H](O)[C@@H](C)[C@@H](O)[C@@H](C)[C@H](OC(C)=O)[C@@H]1C [Example 14, 3-[4-[3-Carboxy-1-(2,4-difluoro-phenyl)-6-fluoro-4-oxo-1,4-dihydro-[1,8]naphthyridine-7-yl]-piperazin-1-ylaminomethylenyl]rifamycin SV] | 0.008 to 0.125 (≈ 0.0071 to 0.111 µM) | 0.008 to 0.1 (≈ 0.0071 to 0.0887 µM) | 0.008 to 0.06 (≈ 0.0071 to 0.0532 µM) | 0.008 to 1 (≈ 0.0071 to 0.887 µM) | 0.06 to 16 (≈ 0.0532 to 14.2 µM) | 0.008 to 0.03 (≈ 0.0071 to 0.0266 µM) | 0.125 to 4 (≈ 0.111 to 3.55 µM)
CCn1cc(C(=O)O)c(=O)c2cc(F)c(N3CCN(/N=C/c4c5c(O)c6c(O)c(C)c7c(c6c4O)C(=O)[C@@](C)(O/C=C/[C@H](OC)[C@@H](C)[C@@H](OC(C)=O)[C@H](C)[C@H](O)[C@H](C)[C@@H](O)[C@@H](C)/C=C/C=C(/C)C(=O)N5)O7)CC3)cc21 [Example 18, 3-[4-(3-Carboxy-1-ethyl-6-fluoro-4-oxo-1,4-dihydroquinolin-7-yl)-piperazin-1-yl-aminomethylenyl]-rifamycin SV] | 0.008 to 0.125 (≈ 0.00768 to 0.12 µM) | 0.008 to 0.1 (≈ 0.00768 to 0.096 µM) | 0.008 to 0.06 (≈ 0.00768 to 0.0576 µM) | 0.008 to 1 (≈ 0.00768 to 0.96 µM) | 0.06 to 16 (≈ 0.0576 to 15.4 µM) | 0.008 to 0.03 (≈ 0.00768 to 0.0288 µM) | 0.125 to 4 (≈ 0.12 to 3.84 µM)
CCn1cc(C(=O)O)c(=O)c2cc(F)c(N3CCN(/N=C/c4c5c(O)c6c(O)c(C)c7c(c6c4O)C(=O)[C@@](C)(O/C=C/[C@H](OC)[C@@H](C)[C@@H](OC(C)=O)[C@H](C)[C@H](O)[C@H](C)[C@@H](O)[C@@H](C)/C=C/C=C(/C)C(=O)N5)O7)CC3)nc21 [Example 19, 3-[4-(3-Carboxy-1-ethyl-6-fluoro-4-oxo-1,4-dihydro-[1,8]naphthyridine-7-yl)-piperazin-1-yl-aminomethylenyl]-rifamycin SV] | 0.008 to 0.125 (≈ 0.00767 to 0.12 µM) | 0.008 to 0.1 (≈ 0.00767 to 0.0959 µM) | 0.008 to 0.06 (≈ 0.00767 to 0.0575 µM) | 0.008 to 1 (≈ 0.00767 to 0.959 µM) | 0.06 to 16 (≈ 0.0575 to 15.3 µM) | 0.008 to 0.03 (≈ 0.00767 to 0.0288 µM) | 0.125 to 4 (≈ 0.12 to 3.83 µM)
COc1c(N2CCN(/N=C/c3c4c(O)c5c(O)c(C)c6c(c5c3O)C(=O)[C@@](C)(O/C=C/[C@H](OC)[C@@H](C)[C@@H](OC(C)=O)[C@H](C)[C@H](O)[C@H](C)[C@@H](O)[C@@H](C)/C=C/C=C(/C)C(=O)N4)O6)CC2)c(F)cc2c(=O)c(C(=O)O)cn(C3CC3)c12 [Example 20, 3-[4-(3-Carboxy-1-cyclopropyl-6-fluoro-8-methoxy-4-oxo-1,4-dihydroquinolin-7-yl)-piperazin-1-yl-aminomethylenyl]-rifamycin SV] | 0.008 to 0.125 (≈ 0.00738 to 0.115 µM) | 0.008 to 0.1 (≈ 0.00738 to 0.0922 µM) | 0.008 to 0.06 (≈ 0.00738 to 0.0553 µM) | 0.008 to 1 (≈ 0.00738 to 0.922 µM) | 0.06 to 16 (≈ 0.0553 to 14.8 µM) | 0.008 to 0.03 (≈ 0.00738 to 0.0277 µM) | 0.125 to 4 (≈ 0.115 to 3.69 µM)
COc1c(N2CCN(C3CCN(/N=C/c4c5c(O)c6c(O)c(C)c7c(c6c4O)C(=O)[C@@](C)(O/C=C/[C@H](OC)[C@@H](C)[C@@H](OC(C)=O)[C@H](C)[C@H](O)[C@H](C)[C@@H](O)[C@@H](C)/C=C/C=C(/C)C(=O)N5)O7)CC3)CC2)c(F)cc2c(=O)c(C(=O)O)cn(C3CC3)c12 [Example 25, 3-{4-[1-(3-Carboxy-1-cyclopropyl-6-fluoro-8-methoxy-4-oxo-1,4-dihydroquinolin-7-yl)-piperazin-4-yl]-piperidin-1-yl-aminomethylenyl}-rifamycin SV] | 0.008 to 0.125 (≈ 0.00685 to 0.107 µM) | 0.008 to 0.1 (≈ 0.00685 to 0.0857 µM) | 0.008 to 0.06 (≈ 0.00685 to 0.0514 µM) | 0.008 to 1 (≈ 0.00685 to 0.857 µM) | 0.06 to 16 (≈ 0.0514 to 13.7 µM) | 0.008 to 0.03 (≈ 0.00685 to 0.0257 µM) | 0.125 to 4 (≈ 0.107 to 3.43 µM)
